In general, EC50 refers to the concentration giving half of the maximal effect. Read a low EC50 as an effect from little substance.

Each structure is given as a SMILES string.

The values below come from patent publication US12319676B2, “Substituted amide compounds useful as farnesoid X receptor modulators” (BRISTOL-MYERS SQUIBB COMPANY, priority 2019, dated 2025).

The test concerns the target T1, human FXR (Homo sapiens, UniProt Q96RI1).
T1 construct: expressed in transfected cells; host or cells: HEK293 cells stably carrying a 5xGal4 response element-luciferase reporter, transiently transfected with pcDNA3.1-Gal4-FXR
T1 sequence (Q96RI1 262-486 limits assumed): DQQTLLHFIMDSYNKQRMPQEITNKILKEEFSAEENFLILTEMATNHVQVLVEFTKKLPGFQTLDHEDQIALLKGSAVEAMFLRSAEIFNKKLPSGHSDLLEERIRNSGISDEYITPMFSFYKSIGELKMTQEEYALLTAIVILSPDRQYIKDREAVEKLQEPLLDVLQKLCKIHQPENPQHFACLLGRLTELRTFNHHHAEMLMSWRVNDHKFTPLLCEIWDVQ
The experiment in a line: transient human FXR/Gal4-luciferase reporter assay. Type of test: cell-based. As to conditions: Gal4-hFXR fusion construct, luciferase reporter in HEK293 cells; overnight incubation; response as percentage of 8 μM GW-4064 control. As for the experimental part:
The exemplified compounds of the present invention were tested in the transient human FXR/Gal4-luciferase reporter assay, and assay results were reported in Table 1 and Examples 1 to 3 together with other analytical data. A Gal4-hFXR fusion construct reporter system was used as the primary assay to characterize compound activity. A construct including 5 copies of the Gal4 promoter response element upstream of a firefly luciferase reporter cDNA was stably expressed in HEK293 cells. This reporter cell line was maintained in Dulbecco's Modified Eagle's medium (DMEM; Gibco) supplemented with 1% penicillin-streptomycin (P/S) solution, 500 μg/mL Zeocin and 10% charcoal/dextran-treated fetal bovine serum (cs-FBS) at 37° C. in a humidified 5% CO2 atmosphere. Another plasmid was constructed in which the human cytomegalovirus promoter in the pcDNA3.1 vector directs the expression of the cDNA encoding a fusion protein comprised of the DNA binding domain from the Gal4 transcription factor fused to the ligand binding domain from human FXR. The day prior to transfection, the reporter cells in culture are detached from the plate with trypsin and plated into a T75 flask at a sufficient density to achieve approximately 90% confluence the next morning. The transfection reagents are prepared by separately diluting 25 μg of the pcDNA3.1-Gal4-FXR plasmid into 1.87 mL of Opti-MEM (Thermo-Fisher), and 40 μL of Lipofectamine 2000 (Thermo-Fisher) into 1.87 mL of Opti-MEM, and then adding the diluted DNA solution into the diluted Lipofectamine 2000 solution and incubating at room temperature for 15-20 minutes. The mixture is further diluted with 10 mL of a solution comprised of DMEM, 10% cs-FBS, and 1% P/S immediately prior to transferring to the cells. The maintenance culture media is aspirated from the cells and the final transfection mixture is added before the cells are incubated overnight at 37° C. in a humidified 5% CO2 atmosphere. This protocol can be scaled up, and the transiently transfected cells can be cryopreserved in an assay-ready format. For compound testing, 100 nL of the compounds (serial dilutions in DMSO) are dispensed with an Echo acoustic dispenser (Labcyte) into the wells of a Corning/Costar clear bottom 384-well white plate. The transfected cells are harvested, counted, and diluted such that 10-25,000 cells in 25 μL are plated into each well of the 384-well compound assay plate. The compound-treated cells are incubated overnight at 37° C. in a humidified 5% CO2 atmosphere. The next morning 25 μL of Steady-Glo (Promega) are added to each well of the plate, the mixture is incubated for 15 min. with shaking, and luminescence is measured on an Envision (Perkin Elmer) plate reader. Background counts from cells treated with DMSO alone are subtracted from all raw counts, and the corrected values are converted to a percentage of the control response attained with 8 μM GW-4064.

Turning to `CC(F)(F)c1nc(C23CCC(CN(c4cccc(S(=O)(=O)NC5CC5)c4)C(=O)[C@H]4C[C@](O)(C(F)(F)F)C4)(CC2)CC3)no1` [Example 19, (1S,3S)-N-(3-(N-cyclopropylsulfamoyl)phenyl)-N-((4-(5-(1,1-difluoroethyl)-1,2,4-oxadiazol-3-yl)bicyclo[2.2.2]octan-1-yl)methyl)-3-hydroxy-3-(trifluoromethyl)cyclobutane-1-carboxamide], the EC50 came out at 4000 nM.

`CC(F)(F)c1nc(C23CCC(CN(C(=O)C4CCC(F)(F)CC4)c4cccc(S(=O)(=O)NC5CC5)c4)(CC2)CC3)no1` [Example 20, N-(3-(N-cyclopropylsulfamoyl)phenyl)-N-((4-(5-(1,1-difluoroethyl)-1,2,4-oxadiazol-3-yl)bicyclo[2.2.2]octan-1-yl)methyl)-4,4-difluorocyclohexane-1-carboxamide]: the concentration giving a half-maximal response (EC50) is 4000 nM.

`CNS(=O)(=O)c1cccc(N(CC23CCC(c4noc(C(C)(F)F)n4)(CC2)CC3)C(=O)C23CC(F)(C2)C3)c1` [Example 21, N-((4-(5-(1,1-difluoroethyl)-1,2,4-oxadiazol-3-yl)bicyclo[2.2.2]octan-1-yl)methyl)-3-fluoro-N-(3-(N-methylsulfamoyl)phenyl)bicyclo[1.1.1]pentane-1-carboxamide]: the EC50 came out at 4000 nM.

On to `CNS(=O)(=O)c1cccc(N(CC23CCC(c4noc(C(C)(F)F)n4)(CC2)CC3)C(=O)[C@H]2C[C@](O)(C(F)(F)F)C2)c1` [Example 22, (1S,3S)-N-((4-(5-(1,1-difluoroethyl)-1,2,4-oxadiazol-3-yl)bicyclo[2.2.2]octan-1-yl)methyl)-3-hydroxy-N-(3-(N-methylsulfamoyl)phenyl)-3-(trifluoromethyl)cyclobutane-1-carboxamide], for which the EC50 came to 4000 nM.

On to `CNS(=O)(=O)c1cccc(N(CC23CCC(c4noc(C(C)(F)F)n4)(CC2)CC3)C(=O)C2CCC(F)(F)CC2)c1` [Example 23, N-((4-(5-(1,1-difluoroethyl)-1,2,4-oxadiazol-3-yl)bicyclo[2.2.2]octan-1-yl)methyl)-4,4-difluoro-N-(3-(N-methylsulfamoyl)phenyl)cyclohexane-1-carboxamide], for which the EC50 worked out at 4000 nM.

`CC(F)(F)c1nc(C23CCC(CN(C(=O)C4CCC(F)(F)CC4)c4cccc(P(C)(C)=O)c4)(CC2)CC3)no1` [Example 24, N-((4-(5-(1,1-difluoroethyl)-1,2,4-oxadiazol-3-yl)bicyclo[2.2.2]octan-1-yl)methyl)-N-(3-(dimethylphosphoryl)phenyl)-4,4-difluorocyclohexane-1-carboxamide] gave an EC50 of 4000 nM.

The compound `CC(F)(F)c1nc(C23CCC(CN(C(=O)C45CC(F)(C4)C5)c4cccc(P(C)(C)=O)c4)(CC2)CC3)no1` [Example 25, N-((4-(5-(1,1-difluoroethyl)-1,2,4-oxadiazol-3-yl)bicyclo[2.2.2]octan-1-yl)methyl)-N-(3-(dimethylphosphoryl)phenyl)-3-fluorobicyclo[1.1.1]pentane-1-carboxamide] yielded a concentration giving a half-maximal response (EC50) of 4000 nM. In other words, the single-digit micromolar range.

Compound `CC(F)(F)c1nc(C23CCC(CN(c4cccc(P(C)(C)=O)c4)C(=O)[C@H]4C[C@](O)(C(F)(F)F)C4)(CC2)CC3)no1` [Example 26, (1S,3S)-N-((4-(5-(1,1-difluoroethyl)-1,2,4-oxadiazol-3-yl)bicyclo[2.2.2]octan-1-yl)methyl)-N-(3-(dimethylphosphoryl)phenyl)-3-hydroxy-3-(trifluoromethyl)cyclobutane-1-carboxamide] returned an EC50 of 4000 nM.

The compound `COC(=O)c1cccc(N(CC23CCC(c4noc(C(C)(F)F)n4)(CC2)CC3)C(=O)C23CC(F)(C2)C3)c1` [Example 27, Methyl 3-(N-((4-(5-(1,1-difluoroethyl)-1,2,4-oxadiazol-3-yl)bicyclo[2.2.2]octan-1-yl)methyl)-3-fluorobicyclo[1.1.1]pentane-1-carboxamido)benzoate] gave an EC50 of 72 nM.

Turning to `CCNC(=O)c1cccc(N(CC23CCC(c4noc(C(C)(F)F)n4)(CC2)CC3)C(=O)C23CC(F)(C2)C3)c1` [Example 28, N-((4-(5-(1,1-difluoroethyl)-1,2,4-oxadiazol-3-yl)bicyclo[2.2.2]octan-1-yl)methyl)-N-(3-(ethylcarbamoyl)phenyl)-3-fluorobicyclo[1.1.1]pentane-1-carboxamide], the response was half-maximal at 210 nM (EC50).

Regarding `CC(F)(F)c1nc(C23CCC(CN(C(=O)C45CC(F)(C4)C5)c4cccc(C(N)=O)c4)(CC2)CC3)no1` [Example 29, N-(3-carbamoylphenyl)-N-((4-(5-(1,1-difluoroethyl)-1,2,4-oxadiazol-3-yl)bicyclo[2.2.2]octan-1-yl)methyl)-3-fluorobicyclo[1.1.1]pentane-1-carboxamide], the midpoint of the response, the EC50, lay at 902 nM.

In the case of `CC(F)(F)c1nc(C23CCC(CN(C(=O)N[C@H]4CC[C@](C)(O)CC4)c4cccc(Br)c4)(CC2)CC3)no1` [Example 30, 1-(3-bromophenyl)-1-((4-(5-(1,1-difluoroethyl)-1,2,4-oxadiazol-3-yl)bicyclo[2.2.2]octan-1-yl)methyl)-3-((1R,4R)-4-hydroxy-4-methylcyclohexyl)urea], the response was half-maximal at 150 nM (EC50).

The compound `CC(C)(C)OC(=O)Nc1cccc(N(CC23CCC(c4noc(C(C)(F)F)n4)(CC2)CC3)C(=O)C23CC(F)(C2)C3)c1` [Example 32, Tert-butyl (3-(N-((4-(5-(1,1-difluoroethyl)-1,2,4-oxadiazol-3-yl)bicyclo[2.2.2]octan-1-yl)methyl)-3-fluorobicyclo[1.1.1]pentane-1-carboxamido)phenyl)carbamate] showed an EC50 of 62 nM.

In turn, `CC(F)(F)c1nc(C23CCC(CN(C(=O)C45CC(F)(C4)C5)c4cccc(Br)c4)(CC2)CC3)no1` [Example 33, N-(3-bromophenyl)-N-((4-(5-(1,1-difluoroethyl)-1,2,4-oxadiazol-3-yl)bicyclo[2.2.2]octan-1-yl)methyl)-3-fluorobicyclo[1.1.1]pentane-1-carboxamide] displayed an EC50 of 13 nM.

In turn, `O=C(N(CC12CCC(c3noc(C4(F)CC4)n3)(CC1)CC2)c1cccc(Br)c1)C12CC(F)(C1)C2` [Example 34, N-(3-bromophenyl)-3-fluoro-N-((4-(5-(1-fluorocyclopropyl)-1,2,4-oxadiazol-3-yl)bicyclo[2.2.2]octan-1-yl)methyl)bicyclo[1.1.1]pentane-1-carboxamide] showed a concentration giving a half-maximal response (EC50) of 20 nM.

`O=C(N(CC12CCC(c3noc(C(F)(F)F)n3)(CC1)CC2)c1cccc(Br)c1)C12CC(F)(C1)C2` [Example 35, N-(3-bromophenyl)-3-fluoro-N-((4-(5-(trifluoromethyl)-1,2,4-oxadiazol-3-yl)bicyclo[2.2.2]octan-1-yl)methyl)bicyclo[1.1.1]pentane-1-carboxamide] had an EC50 of 42 nM.

`CC(C)(C)c1noc(C23CCC(CN(c4cccc(Br)c4)C(=O)[C@H]4C[C@](O)(C(F)(F)F)C4)(CC2)CC3)n1` [Example 36, (1S,3S)—N-(3-bromophenyl)-N-((4-(3-(tert-butyl)-1,2,4-oxadiazol-5-yl)bicyclo[2.2.2]octan-1-yl)methyl)-3-hydroxy-3-(trifluoromethyl)cyclobutane-1-carboxamide] showed an EC50 of 135 nM. Against the preceding compound, the EC50 is about 3.2-fold higher.

Consider `CC(C)(C)c1noc(C23CCC(CN(C(=O)C45CC(F)(C4)C5)c4ccc(Cl)c(Br)c4)(CC2)CC3)n1` [Example 37, N-(3-bromo-4-chlorophenyl)-N-((4-(3-(tert-butyl)-1,2,4-oxadiazol-5-yl)bicyclo[2.2.2]octan-1-yl)methyl)-3-fluorobicyclo[1.1.1]pentane-1-carboxamide], for which a half-maximal response (EC50) required 1080 nM.

Compound `CC(C)(C)c1noc(C23CCC(CN(C(=O)C45CC(F)(C4)C5)c4cccc(C#N)c4)(CC2)CC3)n1` [Example 38, N-((4-(3-(tert-butyl)-1,2,4-oxadiazol-5-yl)bicyclo[2.2.2]octan-1-yl)methyl)-N-(3-cyanophenyl)-3-fluorobicyclo[1.1.1]pentane-1-carboxamide] showed an EC50 of 142 nM.
